# Data: patent publication US20100234393A1, “USE OF A VASOPEPTIDASE INHIBITOR FOR THE TREATMENT OF PULMONARY ARTERIAL HYPERTENSION” (priority 2006, published 2010)
# Tests used:
# [1] = test system: PAH model (monocrotaline, Wistar rats); conditions: literature: Schermuly et al., Amer. J. Resp. Crit. Care Med. 2004, 169, 39; cited from earlier work
# [2] = test system: PAH model in rats receiving an injection of monocrotaline; experiment: Long-term efficacy of fasidotril in the monocrotaline PAH model in rats; type: in vivo, rats of the Wistar type
# Procedure: The long-term efficacy of fasidotril was studied on a recognised PAH model in rats receiving an injection of the toxic alkaloid, monocrotaline (Rosenberg and Rabinovitch, Am. J. Physiol., 1988, 255, 484). After a single injection of the toxin (60 mg/kg, s.c.), the pulmonary arterial endothelium is wounded and the animals develop pulmonary arterial smooth muscle hypertrophy with severe pulmonary hypertension and right ventricular hypertrophy.
# A group of 50 rats of the Wistar type weighing approximately 300 g was used, of which 10 were used as controls while 40 received a dose of 60 mg/kg of monocrotaline s.c. The latter were divided into two groups of 20 animals: the first group was fed with a standard laboratory feed while the second group was fed with a feed containing fasidotril at a concentration such that the rats received a dose of approximately 200 mg/kg/day.
Compound,activity in the PAH model [1],"slowing down of the rate of development of the disease ([2]; PAH model, treatment with fasidotril, conclusion from mortality and heart weight data)","mortality ([2]; after one month, monocrotaline 60 mg/kg s.c., fasidotril in feed approximately 200 mg/kg/day, ""monocrotaline only"" group 45%)","increase in the weight of the right ventricle (right heart hypertrophy) ([2]; after one month, monocrotaline 60 mg/kg s.c., fasidotril in feed approximately 200 mg/kg/day, monocrotaline only +74%)","increase in the weight of the right auricle (right heart hypertrophy) ([2]; after one month, monocrotaline 60 mg/kg s.c., fasidotril in feed approximately 200 mg/kg/day, monocrotaline only +140%)"
CCCc1nn(C)c2c(=O)[nH]c(-c3cc(S(=O)(=O)N4CCN(C)CC4)ccc3OCC)nc12 [sildenafil],active,–,–,–,–
"CC(=O)SC[C@@H](Cc1ccc2c(c1)OCO2)C(=O)N[C@@H](C)C(=O)OCc1ccccc1 [fasidotril, benzyl (S,S)-2-(2-acetylsulphanylmethyl-3-benzo[1,3]dioxol-5-ylpropionylamino)propionate]",–,approximately a half,20%,+50%,+57%
